Measured values: patent publication US4540689A, “Penicillin derivative” (Kureha Kagaku Kogyo Kabushiki Kaisha, priority 1981, dated 1985)
Converted amounts (≈) assume the structure as drawn.

Columns and labels:
[1] = test system: Escherichia coli; assay: Effect on intestinal bacterial colonies, E. coli count in feces; assay type: in vivo; conditions: female ICR mice, oral 500 mg/kg/day for two days, first day after administration; before administration 6.4
Experimental: (§1) Effect of the present compounds on the intestinal bacterial colonies was examined.
(§2) Each of the present compounds was orally administered to mice (one group consisting of five female ICR mice of 6-week-old) for two consecutive days at a dose of 500 mg/kg/day.
(§3) Before and on the first day after the administration, feces of each mouse was collected and diluted with an anerobic diluent (phosphoric buffer solution) of 100 times volume and ground. 0.1 ml of the diluted and ground feces was smeared on each culture medium shown in Table 1 and cultured aerobically or anaerobically (according to the anaerobic glove box method) under each condition shown in Table 1.
DHL agar aerobic, 37° C., one day

[2] = test system: Pseudomonas aeruginosa; assay: Effect on intestinal bacterial colonies, Ps. aeruginosa count in feces; assay type: in vivo; conditions: female ICR mice, oral 500 mg/kg/day for two days, first day after administration; before administration <3.0
Experimental: as §1, §2, §3
NAC agar aerobic, 37° C., one day

[3] = test system: Streptococcus spp.; assay: Effect on intestinal bacterial colonies, Streptococcus count in feces; assay type: in vivo; conditions: female ICR mice, oral 500 mg/kg/day for two days, first day after administration; before administration 6.8
Experimental: as §1, §2, §3
TATAC agar aerobic, 37° C., one day

[4] = test system: Lactobacillus acidophilus; assay: Effect on intestinal bacterial colonies, L. acidophilus count in feces; assay type: in vivo; conditions: female ICR mice, oral 500 mg/kg/day for two days, first day after administration; before administration 9.0
Experimental: as §1, §2, §3
Lactobacillus acidophilus
LBS agar anaerobic, 37° C., five

[5] = test system: Lactobacillus bifidus; assay: Effect on intestinal bacterial colonies, L. bifidus count in feces; assay type: in vivo; conditions: female ICR mice, oral 500 mg/kg/day for two days, first day after administration; before administration 8.4
Experimental: as §1, §2, §3
BS agar anaerobic, 37° C., five

[6] = test system: Bacteroides; assay: Effect on intestinal bacterial colonies, Bacteroides count in feces; assay type: in vivo; conditions: female ICR mice, oral 500 mg/kg/day for two days, first day after administration; before administration 8.3
Experimental: as §1, §2, §3
Bacteroides NBGT agar anaerobic, 37° C., five

[7] = test system: Escherichia coli IFO 12734; assay: Antibacterial activity (MIC), agar plate, E. coli; assay type: cell-based; conditions: E. coli IFO 12734, Mueller-Hinton agar, 37° C., 18 to 24 hours; unit assumed
Experimental: (§4) Antibacterial activity of the present compounds was examined as follows.
(§5) Antibacterial activity of each of the present compounds was examined against the following two bacteria according to the standard method of Japan Society of Chemotherapy:
Escherichia coli IFO 12734 and
(§6) Each bacterial strain was inoculated into the Mueller-Hinton's culture medium and cultured at 37° C. for 18 to 48 hours. The culture medium was diluted so as to contain 1×10^6 cells of the bacteria per one ml, and the obtained medium was used as the bacterial specimen.
(§7) Agar plates were prepared by adding one part by weight of each solution of the present compounds having a predetermined concentration to nine parts by weight of Mueller-Hinton's culture medium.
(§8) A loopful amount of the bacterial specimen prepared above was smeared to make a streak of about 2 cm on each agar plate and cultured at 37° C. for 18 to 24 hours. The minimum concentration for completely inhibiting proliferation of the bacteria (referred as MIC) was determined.

[8] = test system: Staphylococcus aureus IAM 1011; assay: Antibacterial activity (MIC), agar plate, Staph. aureus; assay type: cell-based; conditions: Staph. aureus IAM 1011, Mueller-Hinton agar, 37° C., 18 to 24 hours; unit assumed
Experimental: as §4, §5
Staphylococcus aureus IAM 1011
as §6, §7, §8

[9] = test system: Staphylococcus aureus IAM 1011; assay: Activation by rat liver homogenate (S-9 mix), penicillin cup proliferation-inhibiting circle; assay type: cell-based; conditions: compound solution 100 μg/ml, ratio of circle diameter to conventional penicillin antibiotic; for Proliferation-inhibiting index (%), after adding S-9 mix: incubated with S-9 mix 37° C., 20 min; for Proliferation-inhibiting index (%), before adding S-9 mix: phosphoric buffer control without S-9
Experimental: As an enzyme for activating metabolism, a rat liver homogenate (S-9, manufactured by Oriental Yeast Company, Japan) was used in the following composition per one ml (hereinafter referred to as S-9 mix).
0.1 ml of each solution of the present compounds at a concentration of 100 μg/ml was mixed with 0.9 ml of S-9 mix or 0.9 ml of 0.1M phosphoric buffer solution (as a control) and the obtained mixture was incubated at 37° C. for 20 min with shaking.
Staphylococcus aureus IAM 1011 was inoculated into a Mueller-Hinton's culture medium and cultured at 37° C. for 18 hours. The culture medium was adjusted to a cell concentration of 1×10^8 per one ml and mixed with 50 times by volume of Mueller-Hinton's agar culture medium to obtain an agar plate.
A penicillin cup of 8 mm in diameter was placed on the agar plate prepared above, and into the cup 0.1 ml of the mixture was introduced and allowed to stand at 4° C. for 2 hours and then cultured at 37° C. for 18 hours to measure the diameter of a circle in which the proliferation of bacteria was inhibited (proliferation-inhibiting circle). In Table 4, the proliferation-inhibitingindex is shown with the ratio (%) of the diameter of the proliferation-inhibiting circle obtained by using each of the present compounds to that obtained by using the comparative compound (conventionalpenicillin antibiotic).

Row | Structure (SMILES) | MIC, E. coli [7] [µg/mL] | MIC, Staph. aureus [8] [µg/mL] | Logarithmic value of the number of bacterial cells per one gram of feces, E. coli [1] | Logarithmic value of the number of bacterial cells per one gram of feces, Ps. aeruginosa [2] | Logarithmic value of the number of bacterial cells per one gram of feces, Strept. spp. [3] | Logarithmic value of the number of bacterial cells per one gram of feces, L. acidophilus [4] | Logarithmic value of the number of bacterial cells per one gram of feces, L. bifidus [5] | Logarithmic value of the number of bacterial cells per one gram of feces, Bacteroides [6] | Proliferation-inhibiting index (%), after adding S-9 mix [9] | Proliferation-inhibiting index (%), before adding S-9 mix [9]
1 | CC(=O)OC[C@H]1OC(OC(=O)[C@@H]2N3C(=O)[C@@H](NC(=O)COc4ccccc4)[C@H]3SC2(C)C)[C@H](OC(C)=O)[C@@H](OC(C)=O)[C@@H]1OC(C)=O (some centres unmarked) [Example 1] | ≥ 200 | 0.39 (≈ 0.573 µM) | 7.2 logarithmic value; cells per o | < 3.0 logarithmic value; cells per o | 6.8 logarithmic value; cells per o | 9.1 logarithmic value; cells per o | 8.6 logarithmic value; cells per o | 8.5 logarithmic value; cells per o | ± (0-1) | - (0)
2 | CC(=O)Nc1ccc(C(=O)NCC(=O)N[C@@H](C(=O)N[C@@H]2C(=O)N3[C@@H]2SC(C)(C)[C@@H]3C(=O)O)c2ccccc2)cc1 [Example 8, 7-[N-(p-acetylaminohippuric acid amido)-O-phenylglycineamido]penicillanic acid] | ≥ 100 | ≥ 12.5 | 6.4 logarithmic value; cells per o | < 3.0 logarithmic value; cells per o | 6.7 logarithmic value; cells per o | 9.2 logarithmic value; cells per o | 8.5 logarithmic value; cells per o | 8.1 logarithmic value; cells per o |  | 
3 | CCOCOC(=O)[C@@H]1N2C(=O)[C@@H](NC(=O)COc3ccccc3)[C@H]2SC1(C)C [Example 10] | ≥ 25 | 12.5 (≈ 30.6 µM) | 6.4 logarithmic value; cells per o | < 3.0 logarithmic value; cells per o | 6.6 logarithmic value; cells per o | 9.0 logarithmic value; cells per o | 8.4 logarithmic value; cells per o | 8.2 logarithmic value; cells per o |  | 

Further lines, with some results ahead:

Row | MIC, E. coli [7] [µg/mL] | MIC, Staph. aureus [8] [µg/mL] | Structure (SMILES) | Logarithmic value of the number of bacterial cells per one gram of feces, E. coli [1] | Logarithmic value of the number of bacterial cells per one gram of feces, Ps. aeruginosa [2] | Logarithmic value of the number of bacterial cells per one gram of feces, Strept. spp. [3] | Logarithmic value of the number of bacterial cells per one gram of feces, L. acidophilus [4] | Logarithmic value of the number of bacterial cells per one gram of feces, L. bifidus [5] | Logarithmic value of the number of bacterial cells per one gram of feces, Bacteroides [6] | Proliferation-inhibiting index (%), after adding S-9 mix [9] | Proliferation-inhibiting index (%), before adding S-9 mix [9]
4 | ≥ 100 | ≥ 12.5 | Cc1ncc(CO)c(C=NC(C(=O)N[C@@H]2C(=O)N3[C@@H]2SC(C)(C)[C@@H]3C(=O)O)c2ccccc2)c1O (some centres unmarked) [Example 6] |  |  |  |  |  |  | +++ (66-100) | ++ (33-66)
5 | ≥ 100 | ≥ 12.5 | CC(=O)Nc1ccc(C(=O)N[C@@H](C(=O)N[C@@H]2C(=O)N3[C@@H]2SC(C)(C)[C@@H]3C(=O)O)c2ccccc2)cc1 [Example 7, 7-[N-(p-acetylaminobenzoicamido)-D-phenylglycineamido]penicillanic acid] | 6.5 logarithmic value; cells per o | < 3.0 logarithmic value; cells per o | 6.4 logarithmic value; cells per o | 9.0 logarithmic value; cells per o | 8.2 logarithmic value; cells per o | 8.0 logarithmic value; cells per o |  | 
